Source: patent US5710174A, “Factor XIIIA inhibitor” (Zymo Genetics, Inc., priority 1995, dated 1998)
Like-named read-outs stand apart in the source and are kept apart here.

Molecular target: T1, FXIIIa (Homo sapiens, UniProt P00488)
T1 sequence (P00488 39-732 limits assumed): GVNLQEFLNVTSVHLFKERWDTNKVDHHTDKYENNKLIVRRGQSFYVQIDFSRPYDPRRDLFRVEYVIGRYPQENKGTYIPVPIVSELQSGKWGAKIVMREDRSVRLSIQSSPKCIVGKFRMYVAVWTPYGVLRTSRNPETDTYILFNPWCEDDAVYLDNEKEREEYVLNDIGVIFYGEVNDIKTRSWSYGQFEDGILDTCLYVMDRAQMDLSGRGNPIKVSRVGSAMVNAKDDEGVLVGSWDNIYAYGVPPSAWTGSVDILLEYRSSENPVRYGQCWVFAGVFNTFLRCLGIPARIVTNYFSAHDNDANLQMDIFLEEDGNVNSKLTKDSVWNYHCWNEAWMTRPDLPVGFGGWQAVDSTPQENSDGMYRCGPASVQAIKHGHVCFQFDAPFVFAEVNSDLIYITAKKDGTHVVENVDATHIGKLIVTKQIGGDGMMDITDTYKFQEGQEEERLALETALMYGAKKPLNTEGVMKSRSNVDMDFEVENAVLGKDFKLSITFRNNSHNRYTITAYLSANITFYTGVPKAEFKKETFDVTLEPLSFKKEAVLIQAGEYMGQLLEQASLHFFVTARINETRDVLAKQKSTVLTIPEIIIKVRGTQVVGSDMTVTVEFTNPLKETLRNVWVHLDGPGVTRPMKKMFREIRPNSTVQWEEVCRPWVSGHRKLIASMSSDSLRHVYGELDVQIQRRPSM
Experiment: Fibrinogen clotting assay, FXIIIa (gamma-gamma bands scanned)
Assay type: biochemical
Details: read-out: % FXIIIa Inhibition
Protocol: Clots were formed in 1.5 ml Eppendorf tubes by adding reagents to give the following final assay concentrations in a total volume of 100 μl: 2 mg/ml FXIII-free fibrinogen purified on a rabbit anti-FXIII column (Enzyme Research Labs); 20 mM CaCl2; 1 unit/ml thrombin (bovine, Enzyme Research Labs); and either 1 μg/ml FXIIIa (recombinant human FXIIIa2 (ZymoGenetics)) or 20 μg/ml tTG (Sigma) in 120 mM NaCl plus 25 mM Tris at about pH 7.2. In addition, 10 μl of one of the following was added to each tube in varying concentrations to determine a dose response: iodoacetamide, ZG-1400a or cerulenin. The final reaction volume in each Eppendorf tube was adjusted to 100 μl with 120 mMNaCl plus 25 mM Tris at about pH 7.2.
A positive (complete cross-linking) control contained fibrinogen, enzyme (FXIIIa or tTG), calcium, and thrombin at final assay concentrations listed above, and was tested in the absence of any inhibitor. A negative (no cross-linking) control contained a solution of FXIII-free fibrinogen, thrombin and 20 μM EDTA [(ethylene dinitrilo)tetraacetic acid, disodium salt, dihydrate (J. T. Baker, Phillipsburg, N.J.)] in the absence of calcium and enzyme. Both positive and negative controls contained a final DMSO concentration of 1%. The FXIIIa-treated clots and their controls were incubated for about 10 min at about 37° C., while the tTG-treated clots and their controls were incubated for about 4 h at about 37° C. After incubation, all of the clots and controls were frozen to quench reactions.
Frozen clots and controls were boiled for about 3 min, centrifuged at 14,000 RPM for 5 min, and then the supernatant was removed. The clots were resuspended in 100 μl lysis buffer and incubated overnight at 37° C. The lysis buffer Contained 10M urea, 10 mM EDTA, 1% sodium dodecyl sulfate ("SDS"), and 1% 2-mercaptoethanol. After incubation, approximately 5 μl of each sample was brought to a final volume of 20 μl with a reducing sample buffer (containing 125 mM Tris, pH 6.8, 20% glycerol, 4% SDS, 10% 2-mercaptoethanol, and 0.025% bromophenol blue), and applied to 4-15% gradient gels (Integrated Separation Systems, Natick, Mass.) for polyacrylamide electrophoresis (PAGE) at 200 volts for approximately 1 h or until the tracking dye reached the bottom of the gel.
After staining with Coomassie blue, the alpha, beta, and gamma chains of fibrin were visualized as bands on the gel. The presence of FXIIIa-catalyzed fibrin cross-linking was observed by the appearance of a gamma-gamma dimer, and the disappearance of the monomeric gamma band from the gels. The tTG cross-linking occurs by formation of alpha chain polymers and alpha2 -gamma oligomers. Since there are many bands, they are difficult to visualize. A better indication of tTG cross-linking was the disappearance of the monomeric alpha band from the gels. In addition, the gamma band was reduced, but to a lesser degree than in FXIIIa cross-linked clots.
The gels were also scanned on a densitometer (Bio Image Whole Band Analyzer, Millipore Corp., Bedford, Mass.). The relative intensity of gamma-gamma bands were scanned and compared for FXIIIa inhibition, while alpha bands were scanned and compared for tTG inhibition. No cross-linkingwas detected in the negative controls containing only FXIII-free fibrinogen thrombin and DMSO. […] The inhibition results obtained from PAGE of samples prepared as described above, and containing ZG-1400a at 100 μM and 10 μM, or cerulenin or iodoacetamide at 1 mM, 100 μM, and 10 μM, are shown in Table 2.

[1] = 10 μM, gamma-gamma bands, densitometer
[2] = 100 μM, gamma-gamma bands, densitometer

| SMILES | inhibition at 10 µM [1] [%] | inhibition at 100 µM [2] [%] | inhibition at 1000 µM (1 mM, gamma-gamma bands, densitometer) [%] | inhibition at 10 µM [%] | inhibition at 100 µM [%] | inhibition at 1000 µM [%] |
| --- | --- | --- | --- | --- | --- | --- |
| CC=CCC=CCCC(=O)C1OC1C(N)=O (centres unmarked) [Cerulenin, 2,3-epoxy-4-oxo-7,10-dodecadienamide] | 8 | 38 | 100 |  |  |  |
| NC(=O)CI [Iodoacetamide, iodoacetamide] |  |  |  | 66 | 100 | 100 |
| C[C@@H]1CCC/C=C\C(=O)Cc2cc(O)cc(O)c2C(=O)O1 [ZG-1400, R(-) enantiomer of cis-resorcylide] | 66 | 100 |  |  |  |  |
